Assay results published in patent publication US20230330093A1, “APPLICATION OF NITROGEN-CONTAINING SATURATED HETEROCYCLIC COMPOUND” (SHANGHAI PHARMACEUTICALS HOLDING CO., LTD., priority 2020, published 2023).

Test system: cynomolgus monkeys
Assay: 4-week safety study: hematology and coagulation
Assay type: in vivo
Experimental: […] (1) Hematological and coagulation index examination were performed using a Bayer ADVIA2120 (Germany) and a Sysmex CA-1500 (Japan). (2) The serum biochemical examination was assessed using a HITACHI 7080 automated analyzer (Japan) and an Easylyte PLUS electrolyte analyzer (MEDICA, America). (3) The 24-h pooled urine of each animal was collected by a tray under each cage. Urinalysis was carried out using Uritest-300 (China). (4) The 24-h pooled faeces of each monkey were collected by a tray under each cage. Fecal occult blood was detected. (5) ACCESS 2 Chemiluminescence immunoassay was used for myocardial troponin (TropI, non-GLP) test.

[1] = all treated females and high-dose males

COC(=O)NCCCn1nc([C@@H](C)N(C(=O)[C@H]2CNCCO2)C2CC2)c2ccc(C)nc21 [compound of Formula I]
APTT (Female, 20 mg/kg, d0): 16.7 ± 0.8 s
Fbg (Female, 20 mg/kg, d0): 2.0 ± 0.3 g/L
LYMPH (Female, 20 mg/kg, d0): 51.3 ± 18.0%
NEUT (Female, 20 mg/kg, d0): 42.5 ± 18.8%
WBC (Female, 20 mg/kg, d0): 15.3 ± 3.6 ×10^9 · L^−1
APTT (Female, 20 mg/kg, d14): 15.9 ± 1.0 s
Fbg (Female, 20 mg/kg, d14): 2.9 ± 0.9 g/L
LYMPH (Female, 20 mg/kg, d14): 40.8 ± 11.3%
NEUT (Female, 20 mg/kg, d14): 52.5 ± 10.4%
WBC (Female, 20 mg/kg, d14): 16.0 ± 3.9 ×10^9 · L^−1
APTT (Female, 20 mg/kg, d26): 18.3 ± 1.4 s
Fbg (Female, 20 mg/kg, d26): 2.8 ± 0.9 g/L
LYMPH (Female, 20 mg/kg, d26): 33.1 ± 12.8 %
NEUT (Female, 20 mg/kg, d26): 61.4 ± 13.2 %
WBC (Female, 20 mg/kg, d26): 19.1 ± 4.0 ×10^9 · L^−1
APTT (Female, 20 mg/kg, d 56): 16.4 ± 1.1 s
Fbg (Female, 20 mg/kg, d 56): 1.7 ± 0.5 g/L
LYMPH (Female, 20 mg/kg, d 56): 53.1 ± 7.4%
NEUT (Female, 20 mg/kg, d 56): 38.1 ± 7.1%
WBC (Female, 20 mg/kg, d 56): 12.4 ± 1.6 ×10^9 · L^−1
APTT (Female, 100 mg/kg, d0): 15.0 ± 1.6 s
Fbg (Female, 100 mg/kg, d0): 1.9 ± 0.4 g/L
LYMPH (Female, 100 mg/kg, d0): 44.0 ± 16.5%
NEUT (Female, 100 mg/kg, d0): 50.5 ± 17.3%
WBC (Female, 100 mg/kg, d0): 10.9 ± 2.9 ×10^9 · L^−1
APTT (Female, 100 mg/kg, d14): 14.5 ± 0.9 s
Fbg (Female, 100 mg/kg, d14): 2.5 ± 0.4 g/L
LYMPH (Female, 100 mg/kg, d14): 33.2 ± 4.4 %
NEUT (Female, 100 mg/kg, d14): 59.5 ± 5.3 %
WBC (Female, 100 mg/kg, d14): 14.0 ± 4.0 ×10^9 · L^−1
APTT (Female, 100 mg/kg, d26): 19.7 ± 2.2 s
Fbg (Female, 100 mg/kg, d26): 3.5 ± 0.8 g/L
LYMPH (Female, 100 mg/kg, d26): 30.0 ± 6.8 %
NEUT (Female, 100 mg/kg, d26): 63.2 ± 6.4 %
WBC (Female, 100 mg/kg, d26): 15.9 ± 6.2 ×10^9 · L^−1
APTT (Female, 100 mg/kg, d 56): 15.8 ± 1.5 s
Fbg (Female, 100 mg/kg, d 56): 2.1 ± 0.3 g/L
LYMPH (Female, 100 mg/kg, d 56): 48.7 ± 0.6%
NEUT (Female, 100 mg/kg, d 56): 45.2 ± 2.3%
WBC (Female, 100 mg/kg, d 56): 9.9 ± 1.0 ×10^9 · L^−1
APTT (Female, 450 mg/kg, d0): 16.9 ± 1.4 s
Fbg (Female, 450 mg/kg, d0): 1.8 ± 0.3 g/L
LYMPH (Female, 450 mg/kg, d0): 51.8 ± 12.2%
NEUT (Female, 450 mg/kg, d0): 43.3 ± 12.3%
WBC (Female, 450 mg/kg, d0): 14.4 ± 1.7 ×10^9 · L^−1
APTT (Female, 450 mg/kg, d14): 18.6 ± 0.8 s
Fbg (Female, 450 mg/kg, d14): 3.9 ± 0.8 g/L
LYMPH (Female, 450 mg/kg, d14): 30.1 ± 14.3 %
NEUT (Female, 450 mg/kg, d14): 63.5 ± 15.2 %
WBC (Female, 450 mg/kg, d14): 16.9 ± 7.8 ×10^9 · L^−1
APTT (Female, 450 mg/kg, d26): 20.1 ± 3.1 s
Fbg (Female, 450 mg/kg, d26): 4.2 ± 0.7 g/L
LYMPH (Female, 450 mg/kg, d26): 26.9 ± 8.9 %
NEUT (Female, 450 mg/kg, d26): 67.5 ± 9.2 %
WBC (Female, 450 mg/kg, d26): 18.1 ± 3.7 ×10^9 · L^−1
APTT (Female, 450 mg/kg, d 56): 18.0 ± 3.5 s
Fbg (Female, 450 mg/kg, d 56): 1.4 ± 0.0 g/L
LYMPH (Female, 450 mg/kg, d 56): 53.3 ± 0.3%
NEUT (Female, 450 mg/kg, d 56): 42.3 ± 0.6%
WBC (Female, 450 mg/kg, d 56): 14.0 ± 4.9 ×10^9 · L^−1
APTT (Male, 20 mg/kg, d0): 16.4 ± 1.1 s
Fbg (Male, 20 mg/kg, d0): 2.1 ± 0.6 g/L
LYMPH (Male, 20 mg/kg, d0): 55.3 ± 14.6%
NEUT (Male, 20 mg/kg, d0): 39.9 ± 14.6%
WBC (Male, 20 mg/kg, d0): 13.4 ± 2.5 ×10^9 · L^−1
APTT (Male, 20 mg/kg, d14): 17.8 ± 2.7 s
Fbg (Male, 20 mg/kg, d14): 3.2 ± 0.8 g/L
LYMPH (Male, 20 mg/kg, d14): 51.1 ± 19.6%
NEUT (Male, 20 mg/kg, d14): 43.1 ± 20.4%
WBC (Male, 20 mg/kg, d14): 17.7 ± 9.3 ×10^9 · L^−1
APTT (Male, 20 mg/kg, d26): 19.5 ± 2.4 s
Fbg (Male, 20 mg/kg, d26): 2.2 ± 0.4 g/L
LYMPH (Male, 20 mg/kg, d26): 59.5 ± 11.9%
NEUT (Male, 20 mg/kg, d26): 35.1 ± 12.4%
WBC (Male, 20 mg/kg, d26): 13.8 ± 6.5 ×10^9 · L^−1
APTT (Male, 20 mg/kg, d 56): 21.3 ± 4.0 s
Fbg (Male, 20 mg/kg, d 56): 3.1 ± 1.4 g/L
LYMPH (Male, 20 mg/kg, d 56): 53.3 ± 14.3%
NEUT (Male, 20 mg/kg, d 56): 38.5 ± 12.6%
WBC (Male, 20 mg/kg, d 56): 20.1 ± 4.2 ×10^9 · L^−1
APTT (Male, 100 mg/kg, d0): 16.6 ± 1.8 s
Fbg (Male, 100 mg/kg, d0): 2.2 ± 0.3 g/L
LYMPH (Male, 100 mg/kg, d0): 61.5 ± 16.2%
NEUT (Male, 100 mg/kg, d0): 32.6 ± 18.2%
WBC (Male, 100 mg/kg, d0): 12.6 ± 2.3 ×10^9 · L^−1
APTT (Male, 100 mg/kg, d14): 15.5 ± 0.5 s
Fbg (Male, 100 mg/kg, d14): 2.8 ± 0.7 g/L
LYMPH (Male, 100 mg/kg, d14): 48.0 ± 12.2%
NEUT (Male, 100 mg/kg, d14): 45.2 ± 12.2%
WBC (Male, 100 mg/kg, d14): 15.6 ± 6.6 ×10^9 · L^−1
APTT (Male, 100 mg/kg, d26): 22.5 ± 2.5 s
Fbg (Male, 100 mg/kg, d26): 4.1 ± 1.2 g/L
LYMPH (Male, 100 mg/kg, d26): 32.1 ± 9.4%
NEUT (Male, 100 mg/kg, d26): 60.8 ± 10.5%
WBC (Male, 100 mg/kg, d26): 20.3 ± 2.9 ×10^9 · L^−1
APTT (Male, 100 mg/kg, d 56): 17.7 ± 1.0 s
Fbg (Male, 100 mg/kg, d 56): 1.7 ± 0.3 g/L
LYMPH (Male, 100 mg/kg, d 56): 52.7 ± 9.0%
NEUT (Male, 100 mg/kg, d 56): 42.5 ± 11.2%
WBC (Male, 100 mg/kg, d 56): 14.1 ± 0.2 ×10^9 · L^−1
APTT (Male, 450 mg/kg, d0): 17.0 ± 2.1 s
Fbg (Male, 450 mg/kg, d0): 2.2 ± 0.7 g/L
LYMPH (Male, 450 mg/kg, d0): 48.6 ± 16.8%
NEUT (Male, 450 mg/kg, d0): 46.9 ± 17.3%
WBC (Male, 450 mg/kg, d0): 12.0 ± 3.8 ×10^9 · L^−1
APTT (Male, 450 mg/kg, d14): 16.1 ± 0.8 s
Fbg (Male, 450 mg/kg, d14): 3.1 ± 1.0 g/L
LYMPH (Male, 450 mg/kg, d14): 35.6 ± 15.5%
NEUT (Male, 450 mg/kg, d14): 59.2 ± 16.0%
WBC (Male, 450 mg/kg, d14): 16.7 ± 6.4 ×10^9 · L^−1
APTT (Male, 450 mg/kg, d26): 20.0 ± 3.3 s
Fbg (Male, 450 mg/kg, d26): 4.1 ± 0.6 g/L
LYMPH (Male, 450 mg/kg, d26): 26.5 ± 12.0 %
NEUT (Male, 450 mg/kg, d26): 68.6 ± 12.3 %
WBC (Male, 450 mg/kg, d26): 18.6 ± 5.9 ×10^9 · L^−1
APTT (Male, 450 mg/kg, d 56): 19.9 ± 0.3 s
Fbg (Male, 450 mg/kg, d 56): 1.8 ± 0.0 g/L
LYMPH (Male, 450 mg/kg, d 56): 59.8 ± 22.8%
NEUT (Male, 450 mg/kg, d 56): 36.7 ± 23.2%
WBC (Male, 450 mg/kg, d 56): 14.6 ± 0.8 ×10^9 · L^−1
LYMPH % [1]: decreased
NEUT % [1]: Increased
APTT (high-dose females): increases
Fbg (mid- and high-dose animals): increases
